Test results: patent publication US20250092056A1, “URACIL DERIVATIVES HAVING VIRUS REPLICATION INHIBITORY ACTIVITY AND PHARMACEUTICAL COMPOSITION COMPRISING THE SAME” (Shionogi & Co., Ltd., priority 2022, published 2025)
Where two headings read alike, the source gives them in different places.

What was measured:
[1] = tested on: SARS-CoV-2; experiment: Cytopathic effect (CPE) suppression effect confirmation test using HEK293T/ACE2-TMPRSS2 cells; format: cell-based; details: Severe acute respiratory syndrome coronavirus 2, HEK-293T
[2] = molecular target: Recombinant SARS-CoV-2 3CL Protease (Severe acute respiratory syndrome coronavirus 2 (2019-nCoV) (SARS-CoV-2), UniProt P0DTD1); experiment: biochemical; format: biochemical; details: 50% SARS-CoV-2 3CL protease inhibitory concentration; read-out: IC50
[3] = 50% SARS-CoV-2 infected cell death inhibitory concentration, HEK293T/ACE2-TMPRSS2 cells, read-out: EC50
[4] = 72 h, read-out: EC50 (50% SARS-CoV-2 infected cell death inhibitory concentration), class, HEK293T/ACE2-TMPRSS2 cells, CPE suppression, CellTiter-Glo 2.0 after 3 days culture
[5] = 72 h, HEK293T/ACE2-TMPRSS2 cells, CPE suppression, CellTiter-Glo 2.0 after 3 days culture, read-out: EC50 (50% SARS-CoV-2 infected cell death inhibitory concentration), class

| Structure (SMILES) | EC50 [1, 3] | IC50 [2] | EC50 [1, 4] | EC50 [1, 5] | EC50 ([1]; 72 h, read-out: EC50 (50% SARS-CoV-2 infected cell death inhibitory concentration), HEK293T/ACE2-TMPRSS2 cells, CPE suppression, CellTiter-Glo 2.0 after 3 days culture) |
| --- | --- | --- | --- | --- | --- |
| N#CCn1c(N2CC(OC(F)F)C2)c(-c2ccc(F)c(Cl)c2)c(=O)n(-c2cncc(C(F)F)n2)c1=O [Compound I-358] | < 0.1 µM | < 0.01 µM |  |  |  |
| Cc1cncc(-n2c(=O)c(Oc3cc(F)c(F)c(F)c3)c(Oc3cc(F)c(F)c(F)c3)n(CC#N)c2=O)c1 [Compound I-010] |  | > 0.1 µM | 1 to 5 µM |  |  |
| N#CCn1c(N2CC(O)(C(F)(F)F)C2)c(-c2ccc(F)c(F)c2)c(=O)n(-c2cncc(Cl)c2)c1=O [Compound I-317] | < 0.1 µM | < 0.01 µM |  |  |  |
| N#CCn1c(N2CC(O)C2)c(-c2ccc(F)c(F)c2)c(=O)n(-c2cncc(Cl)c2)c1=O [Compound I-322] | < 0.1 µM | < 0.01 µM |  |  |  |
| N#CCn1c(C2(O)CCC2)c(-c2ccc(F)c(Cl)c2)c(=O)n(-c2cncc(Cl)c2)c1=O [Compound I-348] | < 0.1 µM | 0.01 to 0.1 µM |  |  |  |
| N#CCn1c(N2CC3(C2)CC(F)(F)C3)c(-c2ccc(F)c(Cl)c2)c(=O)n(-c2cnc3cc(F)ccn23)c1=O [Compound I-149] |  | < 0.01 µM | < 0.1 µM |  |  |
| N#CCn1c(N2CC3(CCOC3)C2)c(Cc2cc(F)c(F)c(F)c2)c(=O)n(-c2cncnc2)c1=O [Compound I-007] |  | > 0.1 µM | 0.1 to 1 µM |  |  |
| CC(C)=Cc1c(-c2ccc(F)c(Cl)c2)c(=O)n(-c2cncc(Cl)c2)c(=O)n1CC#N [Compound I-301] | < 0.1 µM | < 0.01 µM |  |  |  |
| CC(C)(F)Cc1c(-c2ccc(F)c(Cl)c2)c(=O)n(-c2cncc(Cl)c2)c(=O)n1CC#N [Compound I-307] | < 0.1 µM | < 0.01 µM |  |  |  |
| Cc1cnnc(-n2c(=O)c(Cc3cc(F)c(F)c(F)c3)c(N3CC4(CCOC4)C3)n(CC#N)c2=O)c1 [Compound I-036] |  | > 0.1 µM | 0.1 to 1 µM |  |  |
| N#CCn1c(N2CC3(CCOC3)C2)c(Cc2cc(F)c(F)c(F)c2)c(=O)n(-c2nsc3ccccc23)c1=O [Compound I-143] |  | > 0.1 µM | 1 to 5 µM |  |  |
| N#CCn1c(N2CC(O)(C(F)(F)F)C2)c(-c2ccc(F)c(Cl)c2)c(=O)n(-c2cnc3cc(F)ccn23)c1=O [Compound I-136] |  | < 0.01 µM | < 0.1 µM |  |  |
| C[C@H](C#N)n1c(N2CC(C(C)(C)O)C2)c(-c2ccc(F)c(Cl)c2)c(=O)n(-c2cncc(Cl)c2)c1=O (single isomer, unassigned) [Compound I-288] | < 0.1 µM | < 0.01 µM |  |  |  |
| Cc1cncc(-n2c(=O)c(Cc3cc(F)c(F)c(F)c3)c(-c3cccc(C#N)c3)n(CC#N)c2=O)c1 [Compound I-012] |  | 0.01 to 0.1 µM |  | < 0.1 µM |  |
| N#CCn1c(N2CCC(F)(C#N)CC2)c(-c2ccc(F)c(Cl)c2)c(=O)n(-c2cncc(Cl)c2)c1=O [Compound I-305] | < 0.1 µM | < 0.01 µM |  |  |  |
| Cc1cc(-n2c(=O)c(Cc3cc(F)c(F)c(F)c3)c(N3Cc4ccccc4C3)n(CC#N)c2=O)cc(=O)[nH]1 [Compound I-159] |  | 0.01 to 0.1 µM |  | 0.1 to 1 µM |  |
| N#CCn1c(-c2ccc(CO)nc2)c(-c2ccc(F)c(Cl)c2)c(=O)n(-c2cncc(Cl)c2)c1=O [Compound I-380] | < 0.1 µM | < 0.01 µM |  |  |  |
| N#CCn1c(N2CCC2)c(-c2ccc(F)c(Cl)c2)c(=O)n(-c2cncc(Cl)c2)c1=O [Compound I-251] | < 0.1 µM | < 0.01 µM |  |  |  |
| N#CCn1c(N2CC3(C2)CC(F)(F)C3)c(-c2ccc(F)c(Cl)c2)c(=O)n(-c2cnc3cc(Cl)ccn23)c1=O [Compound I-140] |  | < 0.01 µM | < 0.1 µM |  |  |
| Cc1cnnc(-n2c(=O)c(-c3ccc(F)c(Cl)c3)c(N3CC4(C3)CC(F)(F)C4)n(CC#N)c2=O)c1 [Compound I-228] | < 0.1 µM | < 0.01 µM |  |  |  |
| N#CCn1c(N2Cc3ccccc3C2)c(C(=O)c2cc(F)c(F)c(F)c2)c(=O)n(-c2cncc(Cl)c2)c1=O [Compound I-165] |  | 3.8 µM |  |  | 0.228 µM |
| Cc1cncc(-n2c(=O)c(Cc3cc(F)c(F)c(F)c3)c(-c3ccc(C)c(C)c3)n(C(C)(C)C#N)c2=O)c1 [Compound I-065] |  | < 0.01 µM | < 0.1 µM |  |  |
| N#CCn1c(C2CCC(F)(F)CC2)c(-c2ccnc(C(F)(F)F)c2)c(=O)n(-c2cncc(Cl)c2)c1=O [Compound I-266] | 0.1 to 1 µM | 0.01 to 0.1 µM |  |  |  |
| N#CCn1c(N2CC3(C2)CC(F)(F)C3)c(-c2ccc(F)c(Cl)c2)c(=O)n(-c2cncc(C#N)n2)c1=O [Compound I-206] | < 0.1 µM | < 0.01 µM |  |  |  |
| Cc1cncc(-n2c(=O)c(-c3ccc(F)c(Cl)c3)c(Oc3cccc4[nH]ccc34)n(CC#N)c2=O)c1 [Compound I-028] |  | < 0.01 µM | < 0.1 µM |  |  |
